Reference: patent US20080171051A1, “Cancer Treatment” (priority 2003, published 2008)

How the values were obtained:
[1] = tested on: c-FLIPL-overexpressing HCT116p53+/+ cell lines (HFL17, HFL24); assay: Growth inhibition (MTT) in c-FLIPL-overexpressing HCT116p53+/+ cell lines versus HLacZ; assay type: cell-based, human
Description: (§1) Cell Viability Assays. […] To investigate drug-induced Fas-mediated apoptosis, cells were seeded at 2,000-5,000 cells per well on 96-well plates. […] To assess chemotherapy/siRNA interactions, 20,000-50,000 cells were seeded per well on 24-well plates. Twenty-four hours later, the cells were transfected with FLIP-targeted (FT) or scrambled siRNA (SC). […] MTT (0.5 mg/ml) was added to each well and the cells were incubated at 37° C. for a further 2 hours. The culture medium was removed and formazan crystals reabsorbed in 200 μl (96-well) or 1 ml (24-well) DMSO. Cell viability was determined by reading the absorbance of each well at 570 nm using a microplate reader (Molecular Devices, Wokingham, England).

HCT116p53+/+ cells [2] = assay: MTT cell viability assay, HCT116 p53 wild type cells; assay type: cell-based, human; conditions: for IC60(72h) dose: HCT116p53+/+ cells; for synergy with CH-11 (RI from MTT): HCT116 p53 wild-type, drug 24 hours then CH-11 200 ng/ml for 48 hours; for effect on cell viability: HCT116 cells, presence or absence of drug
Description: as §1
(§2) siRNA transfections. FLIP-targeted siRNA was designed using the Ambion siRNA target finder and design tool (www.ambion.com/techlib/misc/siRNA_finder.html) to inhibit both splice variants of c-FLIP. Both c-FLIP-targeted (FT) and scrambled control (SC) siRNA were obtained from Xeragon (Germantown, Md.).
(§3) Statistical Analyses. The nature of the interaction between the chemotherapeutic drugs and FLIP-targeted siRNAs was determined by calculating the combination index (CI) according to the method of Chou and Talalay (14). CI values were calculated from isobolograms generated using the CalcuSyn software programme (Microsoft Windows). […] An unpaired two-tailed t test was used to determine the significance of changes in levels of apoptosis between different treatment groups.

HCT116p53-/- cells [3] = assay: MTT cell viability assay, HCT116 p53 null cells; assay type: cell-based, human; conditions: for synergy with CH-11 (RI from MTT): HCT116 p53 null, drug 24 hours then CH-11 200 ng/ml for 48 hours
Description: as §1, §2, §3

Fas = assay: Western blot analysis of Fas expression in MCF-7 cells; assay type: cell-based; conditions: 72 hours after IC60 dose
Description: (§4) Western Blotting. Western blots were performed as previously described (Longley et al., 2002). The Fas/CD95, Bcl-2 and BID (Santa Cruz Biotechnology, Santa Cruz, Calif.), caspase 8 (Oncogene Research Products, Darmstadt, Germany), PARP (Pharmingen, BD Biosciences, Oxford, England), c-FLIP (NF-6, Alexis, Bingham UK) DcR3 (Imgenex, San Diego, Calif.) mouse monoclonal antibodies were used in conjunction with a horseradish peroxidase (HRP)-conjugated sheep anti-mouse secondary antibody (Amersham, Little Chalfont, Buckinghamshire, England). FasL rabbit polyclonal antibody (Santa Cruz Biotechnology) was used in conjunction with an HRP-conjugated donkey anti-rabbit secondary antibody (Amersham). Equal loading was assessed using a β-tubulin mouse monoclonal primary antibody (Sigma).

HCT116p53-/- cells [4] = assay: Flow cytometric analysis of apoptosis, HCT116p53-/- cells; assay type: cell-based, human; conditions: for cells in the sub-G0/G1 fraction (apoptosis): HCT116p53-/- cells, 1 nM siRNA, no drug, 5 μM 5-FU, 5 μM oxaliplatin or 1 μM CPT-11, 72 hours
Description: (§5) Flow Cytometric Analysis. Cells were seeded at 1×10^5 per well of a 6-well tissue culture plate. […] DNA content of harvested cells was evaluated after propidium iodide staining of cells using the EPICS XL Flow Cytometer (Coulter, Miami, Fla.).
(§6) siRNA transfections. FLIP-targeted siRNA was designed using the Ambion siRNA target finder and design tool (www.ambion.com/techlib/misc/siRNA_finder.html) to inhibit both splice variants of c-FLIP. Both c-FLIP-targeted (FT) and scrambled control (SC) siRNA were obtained from Xeragon (Germantown, Md.). The FT siRNA sequence used was: […]. The FL siRNA sequence used was: […]. The control non-silencing siRNA sequence (SC) used was: […]. siRNA transfections were performed on sub-confluent cells incubated in Optimem medium using the oligofectamine reagent (both from Life Technologies Inc) according to the manufacturer's instructions.

HFL24 cells = assay: Flow cytometric analysis of apoptosis, HFL24 cells (c-FLIPL-overexpressing HCT116); assay type: cell-based, human; conditions: 5 μM 5-FU for 72 hours
Description: (§7) Generation of c-FLIP overexpressing cell lines. c-FLIPL and c-FLIPS coding regions were PCR amplified and ligated into the pcDNA/V5-His TOPO vector according to the manufacturer's instructions (Life Technologies Inc.). HCT116p53^+/+ cells were co-transfected with 10 μg of each c-FLIP expression construct and 1 μg of a construct expressing a puromycin resistance gene (pIRESpuro3, Clontech) using GeneJuice. Stably transfected HCT116 cells were selected and maintained in medium supplemented with 1 μg/ml puromycin (Life Technologies Inc.). Stable overexpression of c-FLIP was assessed by Western blot analysis.
as §5

HFL17 cells = assay: Flow cytometric analysis of apoptosis, HFL17 cells (c-FLIPL-overexpressing HCT116); assay type: cell-based, human; conditions: 5 μM 5-FU for 72 hours
Description: as §7, §5

[5] = patients with metastatic colorectal cancer; cited from earlier work
HLacZ cell line = assay: Flow cytometric analysis of apoptosis, HLacZ control cell line; assay type: cell-based, human; conditions: 5 μM 5-FU for 72 hours
Description: as §7, §5

Fas death receptor = Fas death receptor (UniProt P25445); assay: cell-based or functional assay
Chain of Fas death receptor (P25445 26-335 limits assumed): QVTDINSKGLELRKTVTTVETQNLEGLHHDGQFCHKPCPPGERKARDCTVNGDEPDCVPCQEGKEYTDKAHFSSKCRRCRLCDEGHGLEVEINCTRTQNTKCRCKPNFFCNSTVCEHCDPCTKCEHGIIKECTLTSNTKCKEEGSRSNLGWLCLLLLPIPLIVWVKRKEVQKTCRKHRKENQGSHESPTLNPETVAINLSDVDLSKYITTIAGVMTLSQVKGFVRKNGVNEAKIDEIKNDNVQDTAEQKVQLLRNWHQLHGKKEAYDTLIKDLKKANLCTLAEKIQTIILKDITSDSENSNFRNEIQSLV

HCT116p53+/+ cells [6] = assay: Flow cytometric analysis of apoptosis, HCT116p53+/+ cells; assay type: cell-based, human; conditions: for cells in the sub-G0/G1 apoptotic fraction: 0.5 nM siRNA, no drug, 5 μM 5-FU or 1 μM oxaliplatin for 48 hours
Description: as §5, §6

MCF-7 cells = assay type: cell-based; conditions: alone or in combination with 5-FU (data not shown)
Description: Cell Viability Assays. […] To assess chemotherapy/siRNA interactions, 20,000-50,000 cells were seeded per well on 24-well plates. Twenty-four hours later, the cells were transfected with FLIP-targeted (FT) or scrambled siRNA (SC). Four hours after transfection, the cells were treated with a range of concentrations of each drug for a further 72-96 hours. MTT (0.5 mg/ml) was added to each well and the cells were incubated at 37° C. for a further 2 hours. […] FLIP-targeted siRNA was designed using the Ambion siRNA target finder and design tool (www.ambion.com/techlib/misc/siRNA_finder.html) to inhibit both splice variants of c-FLIP. Both c-FLIP-targeted (FT) and scrambled control (SC) siRNA were obtained from Xeragon (Germantown, Md.). The FT siRNA sequence used was: [NT] The FL siRNA sequence used was: [NT] The control non-silencing siRNA sequence (SC) used was: [NT] siRNA transfections were performed on sub-confluent cells incubated in Optimem medium using the oligofectamine reagent (both from Life Technologies Inc) according to the manufacturer's instructions.

c-FLIP [7] = assay: Western blot of c-FLIP expression after siRNA transfection, RKO cells; assay type: cell-based; conditions: 1 nM, 24 hours
Description: as §4
as §2, with “Md.). The FT siRNA sequence used was: AAGCAGTCTGTTCAAGGAGCA. The FL siRNA sequence used was: AAGGAACAGCTTGGCGCTCAA. […]” for “Md.).”

RKO cells = assay: MTT cell viability assay, RKO cells; assay type: cell-based; conditions: absence of chemotherapy, read-out: IC50(72h) dose
Description: as §1, §2
(§8) Statistical Analyses. The nature of the interaction between the chemotherapeutic drugs and FLIP-targeted siRNAs was determined by calculating the combination index (CI) according to the method of Chou and Talalay (14). CI values were calculated from isobolograms generated using the CalcuSyn software programme (Microsoft Windows). […]

H630 cells = assay: MTT cell viability assay, H630 cells; assay type: cell-based; conditions: absence of chemotherapy, read-out: IC50(72h) dose
Description: as §1, §2, §8

c-FLIP [8] = assay: Western blot of c-FLIP expression after siRNA transfection, HCT116p53-/- cells; assay type: cell-based, human; conditions: 1 nM FT siRNA
Description: as §4
as §2, with “Md.). The FT siRNA sequence used was: AAGCAGTCTGTTCAAGGAGCA. The FL siRNA sequence used was: AAGGAACAGCTTGGCGCTCAA. […]” for “Md.).”

c-FLIP [9] = assay: Western blot of c-FLIP expression after siRNA transfection, HCT116p53+/+ cells; assay type: cell-based, human; conditions: for down-regulation of c-FLIP expression: nanomolar concentrations
Description: as §4
siRNA transfections. FLIP-targeted siRNA was designed using the Ambion siRNA target finder and design tool (www.ambion.com/techlib/misc/siRNA_finder.html) to inhibit both splice variants of c-FLIP. Both c-FLIP-targeted (FT) and scrambled control (SC) siRNA were obtained from Xeragon (Germantown, Md.). The FT siRNA sequence used was: AAGCAGTCTGTTCAAGGAGCA. The FL siRNA sequence used was: AAGGAACAGCTTGGCGCTCAA. The control non-silencing siRNA sequence (SC) used was: AATTCTCCGAACGTGTCACGT. siRNA transfections were performed on sub-confluent cells incubated in Optimem medium using the oligofectamine reagent (both from Life Technologies Inc) according to the manufacturer's instructions.

c-FLIP [10] = assay: Western blot of c-FLIP expression after siRNA transfection, MCF-7 cells; assay type: cell-based; conditions: 10 nM FT siRNA
Description: as §4
(§9) siRNA transfections. FLIP-targeted siRNA was designed using the Ambion siRNA target finder and design tool (www.ambion.com/techlib/misc/siRNA_finder.html) to inhibit both splice variants of c-FLIP. Both c-FLIP-targeted (FT) and scrambled control (SC) siRNA were obtained from Xeragon (Germantown, Md.). The FT siRNA sequence used was: AAGCAGTCTGTTCAAGGAGCA. The FL siRNA sequence used was: AAGGAACAGCTTGGCGCTCAA. […]

c-FLIP [11] = assay: Western blot of c-FLIP expression after siRNA transfection, H630 cells; assay type: cell-based; conditions: 1 nM, 24 hours
Description: as §4, §9

[12] = adjuvant setting of colorectal cancer; cited from earlier work

## O=C1[O][Pt]2([NH][C@@H]3CCCC[C@H]3[NH]2)[O]C1=O [OXA, oxaliplatin]
[1]
  increase in the IC50(72h) dose caused by c-FLIPL overexpression: 1.7-2.0 fold
HCT116p53+/+ cells [2]
  IC60(72h) dose: 1000 nM

## Cc1nc2ccc(CN(C)c3ccc(C(=O)N[C@@H](CCC(=O)O)C(=O)O)s3)cc2c(=O)[nH]1 [TDX, tomudex]
HCT116p53+/+ cells [2]
  synergy with CH-11 (RI from MTT): significant synergy
HCT116p53-/- cells [3]
  synergy with CH-11 (RI from MTT): synergy
Fas
  up-regulation of Fas expression: ~7 fold

## CCc1c2c(nc3ccc(OC(=O)N4CCC(N5CCCCC5)CC4)cc13)-c1cc3c(c(=O)n1C2)COC(=O)[C@]3(O)CC [CPT-11, irinotecan]
HCT116p53+/+ cells [2]
  synergy with CH-11 (RI from MTT): significant synergy
HCT116p53-/- cells [3]
  synergy with CH-11 (RI from MTT): synergy
HCT116p53-/- cells [4]; HCT116 p53 null, drug 24 hours then CH-11 50 ng/ml 24 hours
  synergy with CH-11 (propidium iodide staining): significant synergy

## O=c1[nH]cc(F)c(=O)[nH]1 [5-FU]
HFL24 cells
  cells in the sub-G1/G0 apoptotic fraction: ~17%
HCT116p53+/+ cells [2]
  IC60(72h) dose: 5000 nM
HFL17 cells
  cells in the sub-G1/G0 apoptotic fraction: ~15%
[5]
  response rates: 10-15%
Fas
  up-regulation of Fas expression: ~12 fold
HLacZ cell line
  cells in the sub-G1/G0 apoptotic fraction: ~41%

## agonistic Fas monoclonal antibody CH-11
Fas death receptor
  cells in the sub-G1/G0 apoptotic phase (flow cytometry, MCF-7, 5-FU 72 h then 250 ng/ml CH-11 24 h): 55%
  cells in the sub-G1/G0 apoptotic phase (flow cytometry, MCF-7, OXA then CH-11): 50%
  cells in the sub-G1/G0 apoptotic phase (flow cytometry, MCF-7, TDX 72 h then 250 ng/ml CH-11 24 h): 60%

## SC siRNA: control non-silencing siRNA; sequence AATTCTCCGAACGTGTCACGT (AATTCTCCGAACGTGTCACGT; chemistry not given here)
HCT116p53+/+ cells [6]
  cells in the sub-G0/G1 apoptotic fraction: ~9%
HCT116p53+/+ cells [2]
  effect on cell viability: no significant effect on cell viability
HCT116p53+/+ cells [2]; listed as Control siRNA
  effect on cell viability: no effect on cell viability
HCT116p53-/- cells [4]
  cells in the sub-G0/G1 fraction (apoptosis): ~9%
MCF-7 cells
  effect on cell viability: no effect on cell viability

## FT siRNA: siRNA inhibiting both splice variants of c-FLIP; sequence AAGCAGTCTGTTCAAGGAGCA (AAGCAGTCTGTTCAAGGAGCA; chemistry not given here)
c-FLIP [7]
  down-regulation of c-FLIP protein: down-regulated c-FLIP protein
RKO cells
  IC50: ~5 nM
HCT116p53+/+ cells [6]
  cells in the sub-G0/G1 apoptotic fraction: ~26%
HCT116p53+/+ cells [2]; HCT116 p53 wild type cells, absence of chemotherapy, read-out: IC50(72h) dose
  IC50: ~0.7 nM
HCT116p53-/- cells [3]; HCT116 p53 null cells, absence of chemotherapy, read-out: IC50(72h) dose
  IC50: ~2.5 nM
H630 cells
  IC50: ~25 nM
c-FLIP [8]
  down-regulation of c-FLIP expression: effectively down-regulated
c-FLIP [9]
  down-regulation of c-FLIP expression: potently down-regulated expression of both c-FLIP splice variants
c-FLIP [9]; post-transfection, 1 and 10 nM FT siRNA
  time at which both c-FLIP splice forms were efficiently down-regulated: 8 h
c-FLIP [10]
  down-regulation of c-FLIP expression: potently down-regulated expression of both c-FLIP splice variants
c-FLIP [11]
  down-regulation of c-FLIP protein: down-regulated c-FLIP protein
HCT116p53-/- cells [4]
  cells in the sub-G0/G1 fraction (apoptosis): ~14%

## FL siRNA: siRNA specifically down-regulating c-FLIPL; sequence AAGGAACAGCTTGGCGCTCAA (AAGGAACAGCTTGGCGCTCAA; listed as DNA, chemistry not given here)
HCT116p53+/+ cells [6]; PARP cleavage and flow cytometry (data not shown)
  apoptosis in the absence of chemotherapy: induced apoptosis
c-FLIP [9]
  down-regulation of c-FLIP expression: specifically down-regulate the long splice form without affecting expression of c-FLIPS

## 5-FU/leucovorin
[12]
  3-year survival: 72.9%
